Structures are written as SMILES. Where “and” joins values, the source holds several entries; their conditions need not be identical. Equal entries are not always repeated.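 Protocol summary: plate cells (96-well), add compound at 5 concentrations, incubate 48 h, interpolate endpoints linearly. TGI is the concentration that stops growth completely.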

Among the test systems are SNB-75 CNS; A549 NSCLC; SK-MEL-5 melanoma; K-562 leukemia; MCF7 breast; SW-620 colon; SF-295 CNS; HL-60(TB) leukemia; OVCAR-4 ovarian; CCRF-CEM leukemia; HCT-116 colon; IGROV1 ovarian; EKVX NSCLC; HCC-2998 colon; SNB-19 CNS; M14 melanoma; MOLT-4 leukemia; UACC-62 melanoma; OVCAR-5 ovarian; KM12 colon.
Assay in all cases: growth of human tumour cells (NCI), 48 h

Turning to `C=C(Cl)C(Cl)(CBr)CCC(Br)C(C)(C)Cl` (stereo not given), the TGI in the experiment on SNB-75 CNS is 7.12 µM and 1.69 µM and 6.97 µM; in the experiment with A549 NSCLC it was 9.99 µM and 7.54 µM and 16.7 µM; in the experiment on SK-MEL-5 melanoma, 25.4 µM and 25.2 µM and 28.3 µM; in the experiment on K-562 leukemia, 24.4 µM and 10.8 µM and > 92.9 µM; in the experiment with MCF7 breast, 2.83 µM and 2.09 µM and 8.1 µM; with SW-620 colon, 6.08 µM and 4.35 µM and 27.7 µM. The TGI was 3.53 µM and 3.04 µM and 3.7 µM in the experiment with SF-295 CNS; 3 µM and 3.02 µM and 6.99 µM with HL-60(TB) leukemia; 7.93 µM and 4.62 µM and 31.9 µM with OVCAR-4 ovarian; 45.6 µM and 35 µM and > 100 µM with CCRF-CEM leukemia; 1.77 µM and 1.61 µM and 5.75 µM in the experiment with HCT-116 colon; 27.2 µM and 26.9 µM and 53.1 µM in the experiment on IGROV1 ovarian. The TGI is 7.36 µM and 4.19 µM and 12.8 µM with EKVX NSCLC; 6.35 µM and 2.97 µM and 8.14 µM with HCC-2998 colon; 5.54 µM and 4.55 µM and 10.1 µM in the experiment on SNB-19 CNS; 42.2 µM and 33.5 µM and > 74 µM in the experiment with M14 melanoma; 59.8 µM and 33.4 µM and 54.3 µM in the experiment with MOLT-4 leukemia; 12 µM and 15.2 µM and 2.68 µM in the experiment on UACC-62 melanoma. Moreover, the TGI in the experiment with OVCAR-5 ovarian is 8.38 µM and 4.14 µM and 29.8 µM; with KM12 colon, 3.57 µM and 2.83 µM and 6.38 µM.
On to `CO[C@]12C[C@@H](CNC(=O)c3cc(Br)c[nH]3)O[C@H]1NC(=O)N2`, for which the TGI in the experiment on SNB-75 CNS, in the experiment with A549 NSCLC, in the experiment on SK-MEL-5 melanoma, in the experiment on K-562 leukemia, in the experiment on MCF7 breast and in the experiment on SW-620 colon was over 100 µM in each case. Besides, the TGI with SF-295 CNS, in the experiment with HL-60(TB) leukemia, in the experiment with OVCAR-4 ovarian, in the experiment on CCRF-CEM leukemia, with HCT-116 colon and in the experiment on IGROV1 ovarian was over 100 µM each time. Moreover, the TGI in the experiment on EKVX NSCLC, with HCC-2998 colon, in the experiment with SNB-19 CNS, with M14 melanoma, in the experiment with MOLT-4 leukemia and in the experiment with UACC-62 melanoma was over 100 µM each time. For the same compound, the TGI in the experiment on OVCAR-5 ovarian and in the experiment with KM12 colon was over 100 µM throughout.
For `COC(=O)c1ccccc1/C=C1\Cc2ccc3ccccc3c2C1C` (stereo not given), the TGI in the experiment with SNB-75 CNS was over 100 µM; in the experiment on A549 NSCLC it was over 100 µM; with SK-MEL-5 melanoma, 64.5 µM; with K-562 leukemia it was over 100 µM; in the experiment with MCF7 breast, over 100 µM; with SW-620 colon, over 100 µM. In addition, the TGI in the experiment with SF-295 CNS is over 100 µM; in the experiment on HL-60(TB) leukemia, over 100 µM; in the experiment on OVCAR-4 ovarian it was over 100 µM; in the experiment with CCRF-CEM leukemia, over 100 µM; in the experiment with HCT-116 colon, 46.1 µM; in the experiment with IGROV1 ovarian, over 100 µM. The TGI in the experiment with EKVX NSCLC, with HCC-2998 colon, in the experiment with SNB-19 CNS, with M14 melanoma, in the experiment on MOLT-4 leukemia and in the experiment with UACC-62 melanoma was over 100 µM each time. Moreover, the TGI in the experiment with OVCAR-5 ovarian and in the experiment with KM12 colon was over 100 µM each time.
`O=C(c1ccccc1)c1ccc2nc3n(c2c1)C(c1c(Cl)cccc1Cl)SC3` (stereo not given): the TGI with SNB-75 CNS was 18.9 µM; in the experiment on A549 NSCLC, 54.7 µM; in the experiment on SK-MEL-5 melanoma it was 14.6 µM; with K-562 leukemia, over 100 µM; in the experiment with MCF7 breast, over 100 µM; in the experiment with SW-620 colon it was over 100 µM. The TGI with SF-295 CNS is over 26.6 µM; in the experiment with HL-60(TB) leukemia, over 53.5 µM; with OVCAR-4 ovarian, over 80.3 µM; in the experiment with CCRF-CEM leukemia, over 100 µM; in the experiment with HCT-116 colon, 12.8 µM; in the experiment on IGROV1 ovarian, over 100 µM. The TGI in the experiment with EKVX NSCLC is 78.6 µM; in the experiment with HCC-2998 colon it was over 50.4 µM; with SNB-19 CNS, over 64.1 µM; with M14 melanoma, 16.9 µM; in the experiment with MOLT-4 leukemia, 19.7 µM; in the experiment with UACC-62 melanoma, over 36.5 µM. The TGI with OVCAR-5 ovarian was over 100 µM; with KM12 colon, 19.5 µM.
`C=C1C(=O)O[C@@H]2[C@H]1C[C@H](I)[C@@]1(C)CC[C@H](O1)[C@](C)(I)CCCC(C)[C@@H]2O` (stereo not given in full): the TGI with SNB-75 CNS was 21.3 µM; in the experiment with A549 NSCLC it was 26.9 µM; in the experiment with SK-MEL-5 melanoma, over 35.8 µM; with K-562 leukemia, over 42.1 µM; in the experiment on MCF7 breast, 7.29 µM; in the experiment with SW-620 colon it was 3.51 µM. The TGI in the experiment on SF-295 CNS came out at 31.8 µM; in the experiment on HL-60(TB) leukemia, 4.54 µM; in the experiment with OVCAR-4 ovarian, 17.6 µM; with CCRF-CEM leukemia, 1.59 µM; in the experiment on HCT-116 colon, 8.34 µM; with IGROV1 ovarian it was 5.68 µM. The TGI was 22.9 µM in the experiment on EKVX NSCLC; 25.2 µM in the experiment on HCC-2998 colon; 30.5 µM with SNB-19 CNS; 19.4 µM in the experiment on M14 melanoma; over 23.4 µM in the experiment with MOLT-4 leukemia; 16.4 µM in the experiment on UACC-62 melanoma. Besides, the TGI was 26.5 µM with OVCAR-5 ovarian and 23.7 µM with KM12 colon.
With `CCOC(=O)C1=C(C)N(CC(C)C)C2(O)C(OC)CC(=O)C3C(=O)N(c4ccccc4)C(=O)C132` (stereo not given), the TGI with SNB-75 CNS was 75.4 µM; with A549 NSCLC, over 100 µM; with SK-MEL-5 melanoma, 43.9 µM; in the experiment on K-562 leukemia, over 100 µM; with MCF7 breast, over 100 µM; in the experiment with SW-620 colon, 77.9 µM. In addition, the TGI with SF-295 CNS is over 100 µM; with HL-60(TB) leukemia, 69.2 µM; with OVCAR-4 ovarian, over 100 µM; in the experiment with CCRF-CEM leukemia, over 100 µM; with HCT-116 colon, over 100 µM; in the experiment on IGROV1 ovarian, 40.2 µM. For the same compound, the TGI was over 100 µM in the experiment with EKVX NSCLC; 53.8 µM in the experiment with HCC-2998 colon; over 100 µM with SNB-19 CNS; over 100 µM in the experiment on M14 melanoma; 75.6 µM with MOLT-4 leukemia; 47.6 µM in the experiment with UACC-62 melanoma. Also, the TGI is over 100 µM in the experiment on OVCAR-5 ovarian and 90 µM with KM12 colon.
On to `C=CCCCCCCCCC(=O)ON(Cc1ccc(O)c(OC)c1)C(=O)C(F)(F)F`, for which the TGI in the experiment with SNB-75 CNS, in the experiment with A549 NSCLC, with SK-MEL-5 melanoma, with K-562 leukemia, with MCF7 breast and in the experiment with SW-620 colon was over 100 µM throughout. Further, the TGI in the experiment with SF-295 CNS, in the experiment on HL-60(TB) leukemia, with OVCAR-4 ovarian, with CCRF-CEM leukemia, with HCT-116 colon and with IGROV1 ovarian was over 100 µM in each case. Also, the TGI in the experiment on EKVX NSCLC, in the experiment with HCC-2998 colon, in the experiment on SNB-19 CNS, in the experiment with M14 melanoma, in the experiment with MOLT-4 leukemia and with UACC-62 melanoma was over 100 µM throughout. Moreover, the TGI in the experiment with OVCAR-5 ovarian and in the experiment with KM12 colon was over 100 µM throughout.

For the origin of these results see PubChem BioAssay (NCI).
